The values below come from patent US8124655B2, “Use of LR-90 and LR-102 to overcome insulin resistance” (City of Hope, priority 2007, dated 2012).

The subject of assay [1] is Zucker diabetic fatty rats (ZDF, fa/fa). Briefly: Metabolic data of ZDF rats treated with LR-90 or LR-102 (Example 2). Type of assay: in vivo, rat. Here is the method: The present Example presents the results of an investigation of the effects of LR-90, an inhibitor of AGE/ALE formation, in male Zucker diabetic fatty rats (ZDF, fa/fa) fed with Purina 5008 diet until 40 weeks of age, and their hetorozygous lean littermates (ZDF fa/+) as non-hyperglycemic controls. LR-90 at 50 mg/L of drinking water was given to a subgroup of ZDF rats after the rats developed spontaneous diabetes at 13 weeks of age. At 40 weeks of age, and before killing the animals, their weight was measured; HbA1c, plasma glucose, insulin, triglycerides, cholesterol, CRP and urinary albumin and creatinine concentrations were measured. After euthanizing all animals, organs such as the kidneys, eyeballs, liver, heart, aortae and pancreas were dissected and subjected to immunohistochemical staining, RT-PCR, Western blotting and microscopy.

Assay [2] has as its system Zucker diabetic fatty (ZDF) rat. The assay can be described thus: Kidney histopathology: PAMS and Masson's trichrome staining. Type of assay: in vivo. The settings on record: kidney of ZDF rats, p<0.01 vs ZDF. An excerpt:
Kidney sections were stained with periodic acid-Schiff-methenamine silver (PAMS) to evaluate glomerulosclerosis and mesangial matrix expansion; Masson's trichrome staining was used to analyse collagen deposition and cortical tubule degeneration. Glomerulosclerosis was defined as glomerular basement membrane thickening, mesangial hypertrophy and capillary occlusion, and was semiquantitatively evaluated on an arbitrary scale of 0 to 4: grade 0 (normal); grade 1 (sclerotic area less than 25%); grade 2 (sclerotic area 25-50%); grade 3 (sclerotic area 50-75%); and grade 4 (sclerotic area more than 75%). The glomerulosclerotic index was then calculated as described. Briefly, 100 glomeruli were randomly chosen from each rat kidney stained with PAMS and carefully scored for sclerosis by two blinded investigators. This was done in a sequential manner to ensure that the same glomerulus was not graded twice. To quantify for mesangial expansion and ECM accumulation in the mesangial areas, PAMS-positive materials in the mesangial region excluding cellular elements were analysed using an image analyser with a microscope (Olympus AX70; Olympus Optical, Hamburg, Germany) and photographed using a Retiga 2000R CCD camera (Qimaging, Surrey, BC, Canada). Twenty glomeruli, randomly selected from each rat were evaluated by two investigators without knowledge of the origin of the slides. The percentage of PAMS-positive area in each glomerulus was analysed using Image Pro Plus (Media Cybernetics, Silver Spring, Mass., USA). Results were expressed as percentage of areas positive for PAMS staining. To evaluate cortical tubule degeneration and collagen deposition, kidney sections were stained withMasson's trichrome. In each section, six fields of kidney cortex were randomly selected at 100× magnification using an Olympus AX70 microscope, photographed using a Retiga 2000R camera and the images analysed by Image Pro Plus. Blue and red colours indicate collagen and cytoplasm staining, respectively. Degenerate tubules in each field were identified by the absence of cytoplasm and results expressed as number of degenerate tubules per field. For quantitative measurement of collagen deposition, positively stained areas from six random regions in each slide were identified and scored by dividing the positively stained areas by the total tissue area in the same field using the colour separation function of Image Pro Plus. Results were expressed as percentage of area with positive staining.

Assay [3] deals with p38 MAPK, p44/42 MAPK, p65 subunit of NF-κB. Briefly: Renal MAPKs and NF-κB activation by western blot. Type of assay: in vivo, rat. As to the method:
Renal cortical tissues were homogenised in PBS buffer with 1% (vol./vol.) Nonidet P-40, 0.5% (wt/vol.) sodium deoxycholate, 0.1% (wt/vol.) SDS and protease inhibitor mixture (Roche, Indianapolis, Ind., USA). Homogenates were centrifuged for 15 min at 4° C. and at 12,000 rpm and the supernatant fractions collected and stored at −70° C. Nuclear extracts were prepared as described previously. Protein concentrations were measured using the Bio-Rad DC Assay kit. Total RNA was isolated using the RNA-STAT-60 reagent (Tel-Test, Friendswood, Tex., USA). Western blot assay Protein samples (50 μg) were separated on 10 to 20% gradient Tris-glycine Criterion gels (Bio-Rad) and then transferred to nitrocellulose membranes. The membranes were blocked with 5% (wt/vol.) skimmed milk in PBS before incubation with anti-TGF-β1, anti-CTGF, anti-AGER, anti-phospho-p38 MAPK, anti-phospho-p44/42 MAPK and anti-p65 NF-κB antibodies. Immunoreactive proteins were detected by enhanced chemiluminescence (Western Lightning Chemiluminescence Reagent; Perkin-Elmer, Waltham, Mass., USA) using horseradish peroxidase-labelled secondary antibodies. Equal amounts of protein loading were confirmed by restaining the membranes with antibodies against β-actin, p38 MAPK or p44/42 MAPK for cytosolic extracts or with histone H2B for nuclear extracts. Band intensities were quantified using a densitometer (Quantity One, Bio-Rad). Reverse transcriptase-polymerase chain reaction Total RNA (1 μg) was used for the RT reaction using the GeneAmp RNA PCR kit (Applied Biosystems, Foster City, Calif., USA). Total cDNA was then used in PCR reactions containing gene specific primers [Electronic supplementary material (ESM) Table 1] paired with Quantum 18S rRNA internal standards (Ambion, Austin, Tex., USA). Multiplex PCR reactions were performed in a GeneAmp 9700 (Applied Biosystems). […] The densities of amplified products corresponding to specific genes and 18S rRNA were quantified with Quantity One software (Bio-Rad). Results are expressed as the means of the ratios of Tgfb1, Ctgf or Ager band densities to the 18S rRNA band density.
Background: A western blot detects proteins with antibodies after separation by electrophoresis.

Where [4] appears, read: ZDF rats at 40 weeks of age, Mean ± SEM.

Molecules are shown by their SMILES.

In turn, `CC(C)(Oc1ccc(NC(=O)Nc2ccc(Cc3ccc(NC(=O)Nc4ccc(OC(C)(C)C(=O)O)cc4)c(Cl)c3)cc2Cl)cc1)C(=O)O` [LR-90, methylene bis[4,4′-(2-chlorophenylureidophenoxyisobutyric acid)]] yielded a Plasma glucose in assay [1] (ZDF rats at 40 weeks of age, drug in drinking water, Mean ± SEM) of 25 ± 2.3 mM. For the same compound, in assay [1] (setting [4]), the Cholesterol was determined as 244 ± 13 mg/dL; the HbA1c is recorded as 2.89 ± 0.07%; the “Plasma CRP” value is recorded as 0.58 ± 0.09 mg/mL; the “Plasma insulin, ELISA” value worked out at 0.64 ± 0.10 ng/mL. Moreover, in assay [1] (setting [4]), the “Plasma insulin, RIA” value turned out to be 0.63 ± 0.04 ng/mL; the Triglycerides worked out at 384 ± 51 mg/dL; the “Urinary Albumin” value was 27.8 ± 4.8 mg/24 h. In assay [1] (ZDF rats, Example 2), the effect on hyperglycemia result is “no effect”, the effect on hyperlipidemia result is reported as “significantly reduced” and the “increase in CRP levels” value was “attenuated”. Further, in assay [2] (FIG. 1c), the “quantitative scoring for PAMS staining” value is given as “reduced significantly”. The tubular degeneration entry in assay [2] (FIG. 1e) is “reduced significantly”. Besides, in assay [2] (FIG. 1f), the “percentage positive collagen area staining” value was “reduced significantly”. For the same compound, the “glomerulosclerosis index (GSI)” value in assay [2] (FIG. 1d) is on record as “reduced significantly”. In assay [3] (kidney nuclear extracts of ZDF rats, p<0.01), the “activation of NF-κB (p65 subunit)” value is on record as “significantly attenuated”. Moreover, the “activation of p44/42 MAPK” value in assay [3] (renal cortex of ZDF rats, p<0.01) is “significantly attenuated”. In assay [3] (renal cortex of ZDF rats, p<0.05), the “activation of p38 MAPK” value is given as “significantly attenuated”.
